This is an account of results in publication doi:10.1101/2023.03.24.534094v2 (biorxiv, 2023).

Where two headings read alike, the source gives them in different places.

Targets include CDKL1 (Homo sapiens, UniProt Q00532); CDK2 (Homo sapiens, UniProt P24941); Erk2 (Homo sapiens, UniProt P28482); EpHA4 (Homo sapiens, UniProt P54764).
Holding throughout (experiment): biochemical
The target of a further test is T1, BMX (Homo sapiens, UniProt P51813).
T1 sequence (P51813 1-675): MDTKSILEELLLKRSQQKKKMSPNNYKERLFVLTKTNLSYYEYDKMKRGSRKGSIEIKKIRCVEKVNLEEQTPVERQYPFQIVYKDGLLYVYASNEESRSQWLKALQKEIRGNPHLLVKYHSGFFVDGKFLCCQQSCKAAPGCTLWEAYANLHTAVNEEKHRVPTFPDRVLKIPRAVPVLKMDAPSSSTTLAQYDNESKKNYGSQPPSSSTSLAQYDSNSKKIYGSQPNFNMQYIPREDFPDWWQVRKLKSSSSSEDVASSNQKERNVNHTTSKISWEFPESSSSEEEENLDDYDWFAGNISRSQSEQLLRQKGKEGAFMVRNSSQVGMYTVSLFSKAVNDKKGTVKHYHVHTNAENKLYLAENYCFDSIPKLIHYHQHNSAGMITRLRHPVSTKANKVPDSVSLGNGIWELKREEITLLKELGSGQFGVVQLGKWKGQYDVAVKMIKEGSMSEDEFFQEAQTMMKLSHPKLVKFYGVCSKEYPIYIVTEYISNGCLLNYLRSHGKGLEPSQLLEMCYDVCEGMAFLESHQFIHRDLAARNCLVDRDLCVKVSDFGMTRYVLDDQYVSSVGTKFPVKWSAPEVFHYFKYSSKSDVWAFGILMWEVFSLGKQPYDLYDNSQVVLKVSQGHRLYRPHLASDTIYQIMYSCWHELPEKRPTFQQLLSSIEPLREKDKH

Another test addresses T2, TLK1 (Homo sapiens, UniProt Q9UKI8).
T2 sequence (Q9UKI8 1-766): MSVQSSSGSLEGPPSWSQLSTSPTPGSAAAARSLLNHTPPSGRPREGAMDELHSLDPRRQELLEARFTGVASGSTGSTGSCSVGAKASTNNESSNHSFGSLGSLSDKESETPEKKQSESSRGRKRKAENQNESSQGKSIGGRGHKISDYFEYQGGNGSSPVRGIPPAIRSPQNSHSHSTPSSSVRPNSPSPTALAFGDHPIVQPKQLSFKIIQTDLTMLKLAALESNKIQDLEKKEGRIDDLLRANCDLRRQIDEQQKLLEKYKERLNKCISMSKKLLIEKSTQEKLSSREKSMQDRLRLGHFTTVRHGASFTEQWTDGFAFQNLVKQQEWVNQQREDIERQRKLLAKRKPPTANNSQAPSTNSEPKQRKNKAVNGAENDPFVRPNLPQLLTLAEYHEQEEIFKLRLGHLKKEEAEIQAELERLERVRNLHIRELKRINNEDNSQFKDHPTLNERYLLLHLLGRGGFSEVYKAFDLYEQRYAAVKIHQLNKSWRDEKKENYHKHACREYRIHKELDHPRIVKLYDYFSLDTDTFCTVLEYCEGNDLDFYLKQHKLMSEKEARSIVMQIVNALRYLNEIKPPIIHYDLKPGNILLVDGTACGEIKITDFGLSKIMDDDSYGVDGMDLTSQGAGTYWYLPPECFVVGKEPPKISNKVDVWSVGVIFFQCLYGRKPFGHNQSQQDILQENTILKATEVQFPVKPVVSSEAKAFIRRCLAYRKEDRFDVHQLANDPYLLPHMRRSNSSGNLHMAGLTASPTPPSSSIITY

A further test has as its target T3, MAP2K7 (Homo sapiens, UniProt O14733).
T3 sequence (O14733 1-419): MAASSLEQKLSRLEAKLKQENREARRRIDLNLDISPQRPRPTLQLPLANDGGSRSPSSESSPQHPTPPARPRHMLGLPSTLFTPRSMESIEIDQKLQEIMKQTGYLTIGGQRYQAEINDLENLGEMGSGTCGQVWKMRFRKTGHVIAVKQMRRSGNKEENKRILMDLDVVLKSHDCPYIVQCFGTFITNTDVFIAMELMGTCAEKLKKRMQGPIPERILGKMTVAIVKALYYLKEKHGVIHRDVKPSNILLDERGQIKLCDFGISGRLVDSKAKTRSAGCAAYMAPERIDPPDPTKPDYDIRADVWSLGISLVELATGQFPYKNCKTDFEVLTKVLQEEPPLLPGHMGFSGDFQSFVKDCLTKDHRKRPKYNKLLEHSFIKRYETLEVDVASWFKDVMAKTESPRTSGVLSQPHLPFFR

Sequence of EpHA4 (P54764 whole entry): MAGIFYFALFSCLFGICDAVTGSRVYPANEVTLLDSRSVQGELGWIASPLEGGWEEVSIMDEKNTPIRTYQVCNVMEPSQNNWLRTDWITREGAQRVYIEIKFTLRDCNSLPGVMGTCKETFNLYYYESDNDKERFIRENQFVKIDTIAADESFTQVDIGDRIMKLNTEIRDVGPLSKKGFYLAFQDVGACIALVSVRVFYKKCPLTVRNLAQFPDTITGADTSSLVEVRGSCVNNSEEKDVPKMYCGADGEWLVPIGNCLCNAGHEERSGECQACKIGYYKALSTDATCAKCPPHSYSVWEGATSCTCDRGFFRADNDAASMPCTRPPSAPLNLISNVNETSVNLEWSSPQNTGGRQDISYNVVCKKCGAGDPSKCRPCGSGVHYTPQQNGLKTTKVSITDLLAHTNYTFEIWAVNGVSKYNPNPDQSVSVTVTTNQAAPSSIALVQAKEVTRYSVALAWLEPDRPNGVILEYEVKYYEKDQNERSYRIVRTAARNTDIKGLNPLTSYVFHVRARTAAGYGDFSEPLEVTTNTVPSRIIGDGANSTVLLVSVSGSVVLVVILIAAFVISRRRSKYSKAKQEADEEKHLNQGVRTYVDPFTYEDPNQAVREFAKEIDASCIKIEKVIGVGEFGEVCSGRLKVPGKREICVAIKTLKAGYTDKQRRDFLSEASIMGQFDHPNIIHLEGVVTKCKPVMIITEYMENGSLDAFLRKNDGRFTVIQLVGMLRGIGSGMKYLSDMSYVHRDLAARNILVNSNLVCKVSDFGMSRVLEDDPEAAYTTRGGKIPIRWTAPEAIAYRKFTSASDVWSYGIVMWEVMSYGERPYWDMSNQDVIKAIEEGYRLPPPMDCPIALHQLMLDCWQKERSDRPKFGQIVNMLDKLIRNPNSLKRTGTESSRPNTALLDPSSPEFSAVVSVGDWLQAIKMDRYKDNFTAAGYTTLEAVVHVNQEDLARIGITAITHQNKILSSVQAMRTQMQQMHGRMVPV
Sequence of CDKL1 (Q00532 whole entry): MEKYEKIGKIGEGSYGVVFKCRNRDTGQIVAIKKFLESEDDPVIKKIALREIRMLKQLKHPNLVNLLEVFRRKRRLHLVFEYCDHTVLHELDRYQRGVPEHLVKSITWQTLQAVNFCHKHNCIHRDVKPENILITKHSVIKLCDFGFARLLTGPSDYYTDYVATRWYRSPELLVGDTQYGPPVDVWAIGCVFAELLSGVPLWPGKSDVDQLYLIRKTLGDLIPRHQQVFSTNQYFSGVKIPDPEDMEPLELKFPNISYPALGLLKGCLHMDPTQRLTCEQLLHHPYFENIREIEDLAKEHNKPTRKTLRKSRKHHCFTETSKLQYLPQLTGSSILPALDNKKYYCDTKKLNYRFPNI
Sequence of Erk2 (P28482 whole entry): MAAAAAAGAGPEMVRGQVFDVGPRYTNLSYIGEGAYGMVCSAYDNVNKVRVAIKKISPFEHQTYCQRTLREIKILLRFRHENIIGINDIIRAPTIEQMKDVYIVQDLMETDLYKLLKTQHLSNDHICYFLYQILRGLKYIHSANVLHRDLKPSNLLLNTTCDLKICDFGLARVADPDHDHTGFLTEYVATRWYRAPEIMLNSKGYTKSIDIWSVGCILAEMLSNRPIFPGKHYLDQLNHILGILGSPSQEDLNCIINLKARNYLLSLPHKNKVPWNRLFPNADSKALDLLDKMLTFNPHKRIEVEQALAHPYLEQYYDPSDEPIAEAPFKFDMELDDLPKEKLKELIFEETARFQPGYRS

As for `CNc1ncc2cc(-c3ccc(-c4cccc(C)n4)cc3Cl)c(=O)n(CC3OCC(N)CO3)c2n1` (centres unmarked) [compound 2, G-5555], the “dTm G-5555 (2)” value is -0.1 °C on CDKL1 (10 µM, binder); 1.3 °C at BMX (10 µM, binder); -0.3 °C on TLK1 (10 µM, binder); 0.5 °C at CDK2 (10 µM, binder); 1.4 °C at Erk2 (10 µM, binder).
Take `CNc1ncc2cc(-c3cc(Br)ccc3Cl)c(=O)n(C[C@H]3OC[C@H](N)CO3)c2n1` [compound 7, 8-(((2r,5r)-5-Amino-1,3-dioxan-2-yl)methyl)-6-(5-bromo-2-chlorophenyl)-2-(methylamino)pyrido[2,3-d]pyrimidin-7(8H)-one]: the ΔTm at 10 µM on MAP2K7 (read-out: dTm 7) is 0.1 °C; on CDKL1 (read-out: dTm 7), -0.1 °C; on BMX (read-out: dTm 7), 3.2 °C; on TLK1 (read-out: dTm 7) it was 0.9 °C; on EpHA4 (read-out: dTm 7) it was 3.6 °C; on CDK2 (read-out: dTm 7), 0.3 °C. For the same compound, the ΔTm at 10 µM on Erk2 (read-out: dTm 7) is 0 °C.
Consider `CNc1ncc2cc(-c3cc(Br)ccc3Cl)c(=O)n(CCCCN)c2n1` [compound 6, 8-(4-Aminobutyl)-6-(5-bromo-2-chlorophenyl)-2-(methylamino)pyrido[2,3-d]pyrimidin-7(8H)-one], for which the ΔTm at 10 µM on MAP2K7 (read-out: dTm 6) turned out to be 0.9 °C; on CDKL1 (read-out: dTm 6), 0 °C; at BMX (read-out: dTm 6) it was 3.8 °C; on TLK1 (read-out: dTm 6), 0 °C; at CDK2 (read-out: dTm 6) it was 0.5 °C; on Erk2 (read-out: dTm 6) it was 0 °C.
As to `CNc1ncc2cc(-c3ccccc3Cl)c(=O)n(CCCCN)c2n1` [compound 4, 8-(4-Aminobutyl)-6-(2-chlorophenyl)-2-(methylamino)pyrido[2,3-d]pyrimidin-7(8H)-one], the ΔTm at 10 µM is 1.1 °C at MAP2K7 (read-out: dTm MR21 (4)); 0.5 °C at CDKL1 (read-out: dTm MR21 (4)); 3.3 °C on BMX (read-out: dTm MR21 (4)); 0.5 °C on TLK1 (read-out: dTm MR21 (4)); 4.9 °C at EpHA4 (read-out: dTm MR21 (4)); 0.4 °C at CDK2 (read-out: dTm MR21 (4)). At Erk2 (read-out: dTm MR21 (4)), the ΔTm at 10 µM was 1 °C.
With `CNc1ncc2cc(-c3cc(F)ccc3F)c(=O)n(CCCCN)c2n1` [compound 5, 8-(4-Aminobutyl)-6-(2,5-difluorophenyl)-2-(methylamino)pyrido[2,3-d]pyrimidin-7(8H)-one], the ΔTm at 10 µM on MAP2K7 (read-out: dTm MR22 (5)) was -0.9 °C; at CDKL1 (read-out: dTm MR22 (5)) it was 0.5 °C; on BMX (read-out: dTm MR22 (5)), 1.9 °C; at TLK1 (read-out: dTm MR22 (5)) it was -1.3 °C; on EpHA4 (read-out: dTm MR22 (5)), 3 °C; at CDK2 (read-out: dTm MR22 (5)), 0.7 °C. On Erk2 (read-out: dTm MR22 (5)), the ΔTm at 10 µM was -3.7 °C.
